The source of these data is ChEMBL document CHEMBL3585309, “Peroxisome Proliferator-Activated Receptor γ (PPARγ) and Ligand Choreography: Newcomers Take the Stage” (J Med Chem, 2015).

As usually defined, the EC50 is the concentration at which the effect is half-maximal.

The target of test [1] is T1, Peroxisome proliferator-activated receptor gamma (Homo sapiens) (UniProt P37231).
T1 sequence (whole entry): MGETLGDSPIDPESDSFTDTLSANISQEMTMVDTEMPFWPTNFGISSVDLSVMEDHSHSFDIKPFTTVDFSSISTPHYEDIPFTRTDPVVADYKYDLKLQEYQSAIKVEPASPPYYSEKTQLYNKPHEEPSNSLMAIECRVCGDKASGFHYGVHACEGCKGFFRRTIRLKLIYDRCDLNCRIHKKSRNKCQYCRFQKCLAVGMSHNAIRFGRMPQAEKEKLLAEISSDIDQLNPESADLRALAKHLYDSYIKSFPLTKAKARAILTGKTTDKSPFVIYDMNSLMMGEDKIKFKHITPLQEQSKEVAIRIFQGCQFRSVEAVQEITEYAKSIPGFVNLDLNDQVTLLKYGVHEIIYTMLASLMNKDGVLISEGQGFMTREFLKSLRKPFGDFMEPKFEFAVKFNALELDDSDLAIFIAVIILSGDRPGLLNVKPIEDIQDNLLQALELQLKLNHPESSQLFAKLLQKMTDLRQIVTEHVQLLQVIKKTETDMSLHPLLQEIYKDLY
The test is described as follows: Activity at human full length PPARgamma transfected in COS7 cells assessed as transactivation activity by reporter gene assay relative to rosiglitazone. The format is cell-based. Conditions: COS-7; call rule not given here.

Test [2] addresses T2, Peroxisome proliferator-activated receptor gamma (Homo sapiens, UniProt P37231).
T2 sequence (P37231 whole entry): T1 sequence (whole entry)
The test is described as follows: Activity at human PPARgamma transfected in HEK293 cells assessed as transactivation activity by luciferase reporter gene assay. It is filed as cell-based. Background: A reporter such as luciferase makes a cellular process visible.

Test [3] deals with T1, Peroxisome proliferator-activated receptor gamma (Homo sapiens). The test is described as follows: Activity at PPARgamma (unknown origin) assessed as transactivation activity by reporter gene assay relative to rosiglitazone.
For test [4], the target named is T2, Peroxisome proliferator-activated receptor gamma. The test is described as follows: Activity at PPARgamma (unknown origin) assessed as transactivation activity by reporter gene assay.
Test [5] shares this target. The test is described as follows: Activity at human PPARgamma transfected in HEK293 cells assessed as transactivation activity after 24 hrs by Dual-luciferase reporter gene assay relative to rosiglitazone. The format is cell-based.
Test [6] has as its target T1, Peroxisome proliferator-activated receptor gamma (Homo sapiens). The test is described as follows: Activity at PPARgamma (unknown origin) transfected in 293T cells assessed as transactivation activity after 24 hrs by PPRE-TK- luciferase reporter gene assay relative to rosiglitazone. The format is cell-based.
Test [7] has the same target. The test is described as follows: Activity at human full length PPARgamma LBD transfected in COS7 cells assessed as transactivation activity by reporter gene assay relative to rosiglitazone. The format is cell-based. The conditions noted are these: COS-7.
Test [8] has the same target. The test is described as follows: Activity at full length human PPARgamma transfected in CV1 cells assessed as transactivation activity after 24 hrs by PPRE-TK- luciferase reporter gene assay relative to rosiglitazone. It is filed as cell-based. The conditions noted are these: CV-1.
The target in test [9] is T2, Peroxisome proliferator-activated receptor gamma. The test is described as follows: Activity at full length human PPARgamma transfected in CV1 cells assessed as transactivation activity after 24 hrs by PPRE-TK- luciferase reporter gene assay. The format is cell-based, CV-1.

For `CCCCCCCCCC(=O)O`, the %max in test [1] was 60%. For the compound `Cc1oc(-c2ccccc2)nc1CCOc1ccc(C[C@@H](NC(=O)/C=C/c2ccco2)C(=O)O)cc1`, the EC50 in [2] was determined as 155 nM. Take `CC[C@@H](OC(=O)N(Cc1ccccc1)C(=O)Nc1cc(OC)cc(OC)c1)c1cc(-c2ccc(OC(C)(C)C(=O)O)cc2)no1`: the %max in [3] amounted to 70%. In addition, in [4] (read-out: EC50), the EC50 amounted to 0.38 nM. With `Cc1c(C)n(Cc2ccc(-c3ccccc3C(=O)O)cc2)c2ccc(C(=O)NCc3cccnc3)cc12`, in [5], the EC50 result is listed as “Not Active”. Regarding `C[C@@H]1O[C@@H](O[C@@H]2[C@H](O[C@H]3C[C@]4(C)[C@H](C[C@@H](O)[C@@H]5[C@@](C)([C@]6(C)CC[C@H](C(C)(C)O)O6)CC[C@]54C)[C@@]4(C)CC[C@H](O)C(C)(C)[C@H]34)O[C@H](CO)[C@@H](O)[C@@H]2O)[C@H](O)[C@H](O)[C@H]1O`, in test [6], the %max stood at 30%. Regarding `Cc1c(C)n(Cc2ccc(-c3ccccc3C(=O)O)cc2)c2ccc(C(=O)N[C@@H](C)c3ccc([N+](=O)[O-])cc3)cc12`, the EC50 entry in [4] is “Not Active”. Turning to `C[C@H](CCC(=O)O)C[C@H](C)C[C@H](C)C(=O)/C=C(\O)[C@H](C)C[C@H](C)C/C=C/[C@@H](C)[C@@H](O)[C@@H](C)[C@@H](O)C[C@@H]1CC[C@@](C)([C@H]2CC[C@@](C)([C@@H](C)O)O2)O1`, the %max in [7] amounted to 35%. For `CCCc1nc2c(C)cc(-c3nc4ccccc4n3C)cc2n1Cc1ccc(-c2ccccc2C(=O)O)cc1`, the %max in test [8] was determined as 30%. Further, the EC50 in [9] came out at 4500 nM.

On to `CC[C@H](OC(=O)N(Cc1ccccc1)C(=O)Nc1cc(OC)cc(OC)c1)c1cc(-c2ccc(OC(C)(C)C(=O)O)cc2)no1`, for which the %max in test [3] was determined as 60%. Further, the EC50 in test [4] (read-out: EC50) turned out to be 183 nM.
